Data: the kinase profiling compilation of Christmann-Franck et al. (2016)
Where “and” joins values, the source holds several entries; their conditions need not be identical. Equal entries are not always repeated.

Columns and labels:
Assay in all cases: KINOMEscan competition binding
Conditions in all cases: compound 10.0 µM
[1] = test system: ABL1 (human), P00519 [E255K]
[2] = test system: ABL1 (human), P00519 [H396P]
ACVR1B (human) = ACVR1B (human) (UniProt P36896)
AKT3 (human) = AKT3 (human) (UniProt Q9Y243)
AURKA (human) = AURKA (human) (UniProt O14965)
AXL (human) = AXL (human) (UniProt P30530)
BMPR2 (human) = BMPR2 (human) (UniProt Q13873)
CAMK2G (human) = CAMK2G (human) (UniProt Q13555)
CAMK4 (human) = CAMK4 (human) (UniProt Q16566)
CDK11B (human) = CDK11B (human) (UniProt P21127)
CDK18 (human) = CDK18 (human) (UniProt Q07002)
CDK3 (human) = CDK3 (human) (UniProt Q00526)
CDK9 (human) = CDK9 (human) (UniProt P50750)
CSNK1A1L (human) = CSNK1A1L (human) (UniProt Q8N752)
DCLK2 (human) = DCLK2 (human) (UniProt Q8N568)
DDR2 (human) = DDR2 (human) (UniProt Q16832)
EGFR (human) = EGFR (human) (UniProt P00533)
[3] = test system: EGFR (human), P00533 [A750P; 747-749 del]
[4] = test system: EGFR (human), P00533 [G719C; 746-750 del]
[5] = test system: EGFR (human), P00533 [L858R]
EPHA7 (human) = EPHA7 (human) (UniProt Q15375)
FGR (human) = FGR (human) (UniProt P09769)
IKBKB (human) = IKBKB (human) (UniProt O14920)
ITK (human) = ITK (human) (UniProt Q08881)
MAP2K2 (human) = MAP2K2 (human) (UniProt P36507)
MAP3K9 (human) = MAP3K9 (human) (UniProt P80192)
MAPK13 (human) = MAPK13 (human) (UniProt O15264)
MAPK6 (human) = MAPK6 (human) (UniProt Q16659)
MAPKAPK2 (human) = MAPKAPK2 (human) (UniProt P49137)
MARK4 (human) = MARK4 (human) (UniProt Q96L34)
MST1R (human) = MST1R (human) (UniProt Q04912)
NEK7 (human) = NEK7 (human) (UniProt Q8TDX7)
NTRK1 (human) = NTRK1 (human) (UniProt P04629)
NTRK2 (human) = NTRK2 (human) (UniProt Q16620)
PAK2 (human) = PAK2 (human) (UniProt Q13177)
PIK3C2B (human) = PIK3C2B (human) (UniProt O00750)
PKN2 (human) = PKN2 (human) (UniProt Q16513)
PRKG2 (human) = PRKG2 (human) (UniProt Q13237)
[6] = test system: RET (human), P07949 [V804M]
ROS1 (human) = ROS1 (human) (UniProt P08922)
TEC (human) = TEC (human) (UniProt P42680)
TXK (human) = TXK (human) (UniProt P42681)

NTRK2 (human), sequence (Q16620 whole entry, looked up): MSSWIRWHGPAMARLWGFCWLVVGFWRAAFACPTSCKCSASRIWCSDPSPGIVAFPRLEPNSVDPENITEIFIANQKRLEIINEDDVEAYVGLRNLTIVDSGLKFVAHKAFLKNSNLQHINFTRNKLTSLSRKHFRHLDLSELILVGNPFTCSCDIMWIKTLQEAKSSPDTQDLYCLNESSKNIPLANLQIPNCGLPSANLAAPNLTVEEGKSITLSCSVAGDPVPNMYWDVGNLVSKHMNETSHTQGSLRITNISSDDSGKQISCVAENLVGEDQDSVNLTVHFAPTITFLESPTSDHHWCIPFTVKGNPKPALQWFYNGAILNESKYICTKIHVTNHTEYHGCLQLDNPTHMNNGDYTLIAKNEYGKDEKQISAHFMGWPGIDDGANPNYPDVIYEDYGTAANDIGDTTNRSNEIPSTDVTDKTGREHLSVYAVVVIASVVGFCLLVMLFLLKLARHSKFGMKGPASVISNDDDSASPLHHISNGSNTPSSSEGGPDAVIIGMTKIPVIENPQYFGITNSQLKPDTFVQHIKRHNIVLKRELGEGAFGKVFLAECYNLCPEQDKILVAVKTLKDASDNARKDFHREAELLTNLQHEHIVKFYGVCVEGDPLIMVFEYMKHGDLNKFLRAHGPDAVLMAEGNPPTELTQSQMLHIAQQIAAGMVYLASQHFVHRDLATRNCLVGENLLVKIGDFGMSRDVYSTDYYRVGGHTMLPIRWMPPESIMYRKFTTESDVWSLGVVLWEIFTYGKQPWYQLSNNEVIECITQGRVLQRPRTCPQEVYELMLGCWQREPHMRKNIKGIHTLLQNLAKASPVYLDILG
ROS1 (human), sequence (P08922 whole entry, looked up): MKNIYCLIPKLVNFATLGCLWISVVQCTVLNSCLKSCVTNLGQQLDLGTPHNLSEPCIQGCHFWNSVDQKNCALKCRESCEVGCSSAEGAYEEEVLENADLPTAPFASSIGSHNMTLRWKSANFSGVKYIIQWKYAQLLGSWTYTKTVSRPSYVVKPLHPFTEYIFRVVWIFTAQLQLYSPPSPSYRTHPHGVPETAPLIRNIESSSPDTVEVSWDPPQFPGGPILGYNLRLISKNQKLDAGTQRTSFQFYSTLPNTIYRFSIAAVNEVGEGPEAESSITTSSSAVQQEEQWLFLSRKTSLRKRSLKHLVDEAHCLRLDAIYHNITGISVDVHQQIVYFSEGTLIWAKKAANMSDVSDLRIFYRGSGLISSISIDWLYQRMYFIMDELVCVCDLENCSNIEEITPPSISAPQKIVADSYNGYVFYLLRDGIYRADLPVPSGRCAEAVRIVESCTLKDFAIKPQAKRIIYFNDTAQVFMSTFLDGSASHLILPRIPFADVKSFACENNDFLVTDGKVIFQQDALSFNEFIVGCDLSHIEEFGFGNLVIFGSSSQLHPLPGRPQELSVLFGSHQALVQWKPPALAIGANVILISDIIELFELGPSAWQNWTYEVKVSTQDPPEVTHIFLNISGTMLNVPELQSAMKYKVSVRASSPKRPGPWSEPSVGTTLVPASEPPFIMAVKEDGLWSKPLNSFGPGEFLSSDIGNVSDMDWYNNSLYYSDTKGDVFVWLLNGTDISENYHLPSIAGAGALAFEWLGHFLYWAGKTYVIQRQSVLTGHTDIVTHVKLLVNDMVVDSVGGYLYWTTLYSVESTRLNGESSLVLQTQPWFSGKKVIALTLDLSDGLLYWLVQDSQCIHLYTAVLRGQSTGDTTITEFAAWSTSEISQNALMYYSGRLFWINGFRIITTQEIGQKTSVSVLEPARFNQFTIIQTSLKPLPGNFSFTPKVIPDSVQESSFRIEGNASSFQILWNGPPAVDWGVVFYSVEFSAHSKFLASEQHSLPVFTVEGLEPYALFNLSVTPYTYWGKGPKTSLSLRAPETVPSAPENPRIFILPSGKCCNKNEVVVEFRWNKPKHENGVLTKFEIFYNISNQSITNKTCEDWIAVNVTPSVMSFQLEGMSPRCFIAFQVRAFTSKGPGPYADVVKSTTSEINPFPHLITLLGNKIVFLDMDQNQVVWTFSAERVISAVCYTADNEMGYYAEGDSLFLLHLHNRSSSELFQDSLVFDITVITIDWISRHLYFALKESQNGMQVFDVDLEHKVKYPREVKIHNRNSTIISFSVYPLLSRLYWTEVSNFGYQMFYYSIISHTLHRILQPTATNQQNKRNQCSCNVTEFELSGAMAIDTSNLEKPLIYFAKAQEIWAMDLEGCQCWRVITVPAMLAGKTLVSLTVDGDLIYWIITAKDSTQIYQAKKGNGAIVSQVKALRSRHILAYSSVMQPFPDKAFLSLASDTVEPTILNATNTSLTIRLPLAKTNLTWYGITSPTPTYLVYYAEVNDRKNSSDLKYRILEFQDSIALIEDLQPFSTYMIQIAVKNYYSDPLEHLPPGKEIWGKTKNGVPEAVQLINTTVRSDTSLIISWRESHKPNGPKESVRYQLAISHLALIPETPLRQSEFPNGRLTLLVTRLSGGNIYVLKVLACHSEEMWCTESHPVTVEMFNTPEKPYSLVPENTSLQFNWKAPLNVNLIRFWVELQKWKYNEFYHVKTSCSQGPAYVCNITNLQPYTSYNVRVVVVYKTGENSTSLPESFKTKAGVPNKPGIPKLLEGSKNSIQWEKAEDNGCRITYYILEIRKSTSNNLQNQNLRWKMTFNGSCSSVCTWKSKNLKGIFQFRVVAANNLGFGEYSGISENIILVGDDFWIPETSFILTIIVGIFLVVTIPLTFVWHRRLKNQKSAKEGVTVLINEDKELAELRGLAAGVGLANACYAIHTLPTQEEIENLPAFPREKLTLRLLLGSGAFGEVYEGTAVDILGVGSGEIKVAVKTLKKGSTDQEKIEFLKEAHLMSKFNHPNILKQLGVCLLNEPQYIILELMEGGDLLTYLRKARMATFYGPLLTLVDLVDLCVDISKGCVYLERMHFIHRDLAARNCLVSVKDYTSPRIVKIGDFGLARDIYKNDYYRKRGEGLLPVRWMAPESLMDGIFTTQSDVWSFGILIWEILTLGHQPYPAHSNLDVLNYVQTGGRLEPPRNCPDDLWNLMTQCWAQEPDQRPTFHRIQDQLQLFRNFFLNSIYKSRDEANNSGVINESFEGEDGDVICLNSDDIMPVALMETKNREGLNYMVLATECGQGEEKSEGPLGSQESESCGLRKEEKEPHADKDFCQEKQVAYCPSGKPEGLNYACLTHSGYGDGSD
PIK3C2B (human), sequence (O00750 whole entry, looked up): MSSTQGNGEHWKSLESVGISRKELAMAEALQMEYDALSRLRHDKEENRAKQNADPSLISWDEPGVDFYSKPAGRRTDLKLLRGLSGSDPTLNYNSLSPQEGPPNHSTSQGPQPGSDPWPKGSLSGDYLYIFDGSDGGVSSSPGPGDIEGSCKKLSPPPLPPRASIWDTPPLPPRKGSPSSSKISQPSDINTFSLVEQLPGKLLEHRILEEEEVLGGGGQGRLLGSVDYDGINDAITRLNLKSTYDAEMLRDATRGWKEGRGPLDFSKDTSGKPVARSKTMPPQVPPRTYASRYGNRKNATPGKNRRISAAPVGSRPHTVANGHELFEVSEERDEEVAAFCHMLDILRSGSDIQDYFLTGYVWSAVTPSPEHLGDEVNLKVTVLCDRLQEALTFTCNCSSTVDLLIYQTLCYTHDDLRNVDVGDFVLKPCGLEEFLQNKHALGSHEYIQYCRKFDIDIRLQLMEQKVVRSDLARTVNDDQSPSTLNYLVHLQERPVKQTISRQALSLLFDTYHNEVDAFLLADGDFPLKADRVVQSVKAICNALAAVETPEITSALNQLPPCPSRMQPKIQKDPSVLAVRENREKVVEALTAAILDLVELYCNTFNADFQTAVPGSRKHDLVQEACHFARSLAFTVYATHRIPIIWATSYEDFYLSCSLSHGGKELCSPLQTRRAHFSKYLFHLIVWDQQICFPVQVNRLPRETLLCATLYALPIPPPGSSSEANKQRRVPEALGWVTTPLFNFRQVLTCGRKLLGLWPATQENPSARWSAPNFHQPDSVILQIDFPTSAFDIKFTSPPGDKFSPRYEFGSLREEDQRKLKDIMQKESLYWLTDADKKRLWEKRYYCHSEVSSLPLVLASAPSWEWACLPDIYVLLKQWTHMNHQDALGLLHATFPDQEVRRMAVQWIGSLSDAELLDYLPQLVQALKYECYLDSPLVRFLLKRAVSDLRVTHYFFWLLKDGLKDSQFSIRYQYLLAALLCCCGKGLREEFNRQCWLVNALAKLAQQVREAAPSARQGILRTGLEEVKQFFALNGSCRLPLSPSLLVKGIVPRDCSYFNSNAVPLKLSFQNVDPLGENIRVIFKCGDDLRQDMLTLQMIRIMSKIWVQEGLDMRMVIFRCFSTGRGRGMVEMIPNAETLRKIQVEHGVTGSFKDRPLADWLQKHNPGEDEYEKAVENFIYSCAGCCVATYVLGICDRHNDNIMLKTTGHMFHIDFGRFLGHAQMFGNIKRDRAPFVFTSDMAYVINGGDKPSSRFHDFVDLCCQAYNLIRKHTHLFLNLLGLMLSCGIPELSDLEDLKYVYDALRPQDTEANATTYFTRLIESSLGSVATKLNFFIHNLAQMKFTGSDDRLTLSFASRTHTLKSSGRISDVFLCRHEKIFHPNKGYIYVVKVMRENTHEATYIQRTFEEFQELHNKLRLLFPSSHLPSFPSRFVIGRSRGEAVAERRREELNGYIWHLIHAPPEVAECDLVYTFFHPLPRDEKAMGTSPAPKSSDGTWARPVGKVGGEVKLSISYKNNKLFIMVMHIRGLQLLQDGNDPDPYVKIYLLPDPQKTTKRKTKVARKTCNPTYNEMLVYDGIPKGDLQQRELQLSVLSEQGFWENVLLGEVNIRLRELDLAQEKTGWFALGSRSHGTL
NEK7 (human), sequence (Q8TDX7 whole entry, looked up): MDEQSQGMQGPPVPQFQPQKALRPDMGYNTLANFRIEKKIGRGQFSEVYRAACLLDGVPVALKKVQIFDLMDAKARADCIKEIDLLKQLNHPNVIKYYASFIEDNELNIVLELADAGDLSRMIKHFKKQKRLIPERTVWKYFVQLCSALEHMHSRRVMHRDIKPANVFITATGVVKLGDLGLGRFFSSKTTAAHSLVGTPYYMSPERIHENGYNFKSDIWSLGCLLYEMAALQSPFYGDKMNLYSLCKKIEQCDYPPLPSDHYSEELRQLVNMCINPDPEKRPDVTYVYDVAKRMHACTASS

For `COc1cc(N2CCC(O)CC2)ccc1Nc1ncc2c(n1)N1CCc3cccc(c31)C(=O)N2C`, the kinase still bound, per cent of control [1] was 90%, the kinase still bound, per cent of control [2] was 100% and the kinase still bound, per cent of control (ACVR1B (human)) was 100%. The kinase still bound, per cent of control (AKT3 (human)) was 61%, the kinase still bound, per cent of control (AURKA (human)) was 23% and the kinase still bound, per cent of control (AXL (human)) was 100%. It also gave a kinase still bound, per cent of control (BMPR2 (human)) of 100%, a kinase still bound, per cent of control (CAMK2G (human)) of 80% and a kinase still bound, per cent of control (CAMK4 (human)) of 100%. It also gave a kinase still bound, per cent of control (CDK11B (human)) of 100%, a kinase still bound, per cent of control (CDK18 (human)) of 100% and a kinase still bound, per cent of control (CDK3 (human)) of 97%. For the same molecule, the kinase still bound, per cent of control (CDK9 (human)) was 100%, the kinase still bound, per cent of control (CSNK1A1L (human)) was 95% and the kinase still bound, per cent of control (DCLK2 (human)) was 0.4%. For the same molecule, the kinase still bound, per cent of control (DDR2 (human)) was 90%, the kinase still bound, per cent of control (EGFR (human)) was 59% and 83% and the kinase still bound, per cent of control [3] was 84%. For the same molecule, the kinase still bound, per cent of control [4] was 78%, the kinase still bound, per cent of control [5] was 88% and the kinase still bound, per cent of control (EPHA7 (human)) was 92%. For the same molecule, the kinase still bound, per cent of control (FGR (human)) was 93%, the kinase still bound, per cent of control (IKBKB (human)) was 92% and the kinase still bound, per cent of control (ITK (human)) was 90%. It also gave a kinase still bound, per cent of control (MAP2K2 (human)) of 99%, a kinase still bound, per cent of control (MAP3K9 (human)) of 96% and a kinase still bound, per cent of control (MAPK13 (human)) of 87%. It also gave a kinase still bound, per cent of control (MAPK6 (human)) of 100%, a kinase still bound, per cent of control (MAPKAPK2 (human)) of 100% and a kinase still bound, per cent of control (MARK4 (human)) of 86%. The kinase still bound, per cent of control (MST1R (human)) was 82%, the kinase still bound, per cent of control (NEK7 (human)) was 98% and the kinase still bound, per cent of control (NTRK1 (human)) was 82%. It also gave a kinase still bound, per cent of control (NTRK2 (human)) of 100%, a kinase still bound, per cent of control (PAK2 (human)) of 67% and a kinase still bound, per cent of control (PIK3C2B (human)) of 100%. The kinase still bound, per cent of control (PKN2 (human)) was 100%, the kinase still bound, per cent of control (PRKG2 (human)) was 96% and the kinase still bound, per cent of control [6] was 93%. For the same molecule, the kinase still bound, per cent of control (ROS1 (human)) was 29%, the kinase still bound, per cent of control (TEC (human)) was 100% and the kinase still bound, per cent of control (TXK (human)) was 100%.
